Measured values reported in PubChem BioAssay (NCI).
“And” between values parts separate entries of the source, which are not always exact repeats. Equal values may be shown once.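 Compound exposure: 48 hours, 5 concentrations, 96-well plates. Abbreviation: GI50, concentration required for 50% inhibition of growth. At the TGI there is no net growth.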

Tests used:
Test in all cases: NCI tumour cell line growth inhibition, 48 h
A549 NSCLC = tested on: A549 NSCLC
CCRF-CEM leukemia = tested on: CCRF-CEM leukemia
HCC-2998 colon = tested on: HCC-2998 colon
HOP-92 NSCLC = tested on: HOP-92 NSCLC
SF-295 CNS = tested on: SF-295 CNS
SF-539 CNS = tested on: SF-539 CNS
SK-OV-3 ovarian = tested on: SK-OV-3 ovarian
TK-10 renal = tested on: TK-10 renal
UACC-62 melanoma = tested on: UACC-62 melanoma
UO-31 renal = tested on: UO-31 renal

SMILES | GI50 (A549 NSCLC) | TGI (A549 NSCLC) | GI50 (CCRF-CEM leukemia) | TGI (CCRF-CEM leukemia) | GI50 (HCC-2998 colon) | TGI (HCC-2998 colon) | GI50 (HOP-92 NSCLC) | TGI (HOP-92 NSCLC) | GI50 (SF-295 CNS) | TGI (SF-295 CNS) | GI50 (SF-539 CNS) | TGI (SF-539 CNS) | GI50 (SK-OV-3 ovarian) | TGI (SK-OV-3 ovarian) | GI50 (TK-10 renal) | TGI (TK-10 renal) | GI50 (UACC-62 melanoma) | TGI (UACC-62 melanoma) | GI50 (UO-31 renal) | TGI (UO-31 renal)
COC(=O)c1c(O)c([N+](=O)[O-])cc2c1c1c(n2Cc2ccccc2)C(=O)c2ccccc2C1=O | 20.4 µM | > 100 µM | 15.8 µM | > 100 µM | 11.2 µM | 23.2 µM | 8.08 µM | 63 µM | 52.1 µM | > 100 µM | 18.3 µM | 55.3 µM | > 100 µM | > 100 µM | 18.7 µM | > 100 µM | 30.9 µM | > 100 µM | 21.1 µM | > 100 µM
Nc1ncnc2c1c(-c1cccc(OCc3ccccc3)c1)cn2C1CC(CN2CCC2)C1 (stereo not given) | 1.01 µM and 2.91 µM | 7.55 µM and > 10 µM | 2.58 µM and 2.97 µM | 7.99 µM and > 10 µM | 2.26 µM and 5.4 µM | 10.6 µM and > 10 µM | 0.0457 µM and 0.266 µM | 0.837 µM and 3.82 µM | 1.89 µM and 2.36 µM | 3.93 µM and 5.63 µM | 1.65 µM and 1.95 µM | 3.18 µM and 5.16 µM | 3.99 µM | 11.3 µM and > 10 µM | 2.02 µM and 2.85 µM | 7.74 µM and > 10 µM | 1.74 µM and 1.5 µM | 3.58 µM and 3.33 µM | 1.31 µM and 1.75 µM | 4.34 µM and 9.79 µM
Cc1cc(O)c(C2=NN(c3ccc(S(N)(=O)=O)cc3)C(c3ccc(N(C)C)cc3)C2)c(C)c1Cl (stereo not given) | 14.7 µM | 43.5 µM | 15.1 µM | 43.6 µM | 14.8 µM | 30.9 µM | 10.3 µM | 23.6 µM | 19.2 µM | 44.4 µM | 15.7 µM | 29.3 µM | 27.4 µM | 90.8 µM | 22.1 µM | 42.4 µM | 9.92 µM | 25.8 µM | 12.7 µM | 29.4 µM
CC(=O)O[C@@H]1[C@@H](O)C2=C3[C@]4(C)[C@@H]1C(C)(C)C(=O)C[C@@H]4[C@]3(O)[C@H](OC(C)=O)[C@@]1(C[C@@H]1C)C2=O | – | 68.4 µM | – | 34.1 µM | – | 32.7 µM | – | 36.6 µM | – | 42.1 µM | – | 56.1 µM | – | 52.6 µM | – | 29.7 µM | – | 33.2 µM | – | 33.9 µM
C=C1c2[nH]c3ccccc3c2C2C(CC)C1CCN2C (stereo not given) | – | > 100 µM | – | > 100 µM | – | 37.8 µM | – | > 100 µM | – | > 100 µM | – | > 100 µM | – | > 100 µM | – | > 100 µM | – | > 100 µM | – | > 100 µM
CC1=C(C(=O)Nc2cc(=O)n(C)c(=O)n2C)C(c2ccc([N+](=O)[O-])cc2)C(C(=O)Nc2cc(=O)n(C)c(=O)n2C)=C(C)N1 | – | > 100 µM | – | > 100 µM | – | > 100 µM | – | 85.7 µM | – | > 100 µM | – | > 100 µM | – | > 100 µM | – | > 100 µM | – | > 100 µM | – | > 100 µM
CN1C(=O)[C@@H](NC(=O)[C@H](CCC(F)(F)F)[C@H](CCC(F)(F)F)C(N)=O)N=C(c2ccccc2)c2ccccc21 | 66.7 µM | > 100 µM | 55 µM | > 100 µM | > 100 µM | > 100 µM | 59.1 µM | > 100 µM | 58.4 µM | > 100 µM | 50.3 µM | > 100 µM | > 100 µM | > 100 µM | > 100 µM | > 100 µM | 35.7 µM | > 100 µM | 49 µM | > 100 µM
